Format in all cases: cell-based
The subject of series [1] is Acinetobacter baumannii 872842. The note with it: 872842. The method in brief: (§1)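 Standard CLSI microdilution testing: bacterial suspensions standardized against 0.5 McFarland to about 10^6 CFU/mL in MH-II broth meet serially halved peptide concentrations in broth containing 0.002% polysorbate 80; incubation lasts 18-20 h at 35° C before the MIC is scored.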
Series [2] deals with Acinetobacter baumannii DSM 30008. The note with it: DSM 30008. The method in brief: as §1
The subject of series [3] is Enterobacter cloacae 848840. The note with it: 848840. In a few lines:
as §1

In a further series the test system is Escherichia coli 926415. Particulars: 926415. In a few lines:
as §1

For series [4], the system named is Escherichia coli ATCC 25922. Particulars: ATCC 25922. In a few lines:
as §1

The subject of series [5] is Klebsiella pneumoniae 968733. Particulars: 968733. In a few lines:
as §1

For series [6], the system named is Klebsiella pneumoniae SSI #3010. Particulars: SSI #3010. The method in brief:
as §1

The subject of series [7] is Pseudomonas aeruginosa ATCC 27853. Particulars: ATCC 27853. The method in brief:
as §1

For series [8], the system named is human red blood cells (hRBC). As to the kind of experiment: Hemolysis. Particulars: red cells of human, 1 h, 200. In a few lines:
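Washed fresh hRBC (20% v/v) were incubated with peptides at 200 μg/mL for 1 h at 37° C with shaking at 300 rpm. Supernatant OD540 was read after centrifugation and dilution, blank-corrected, and expressed as percent of the 2% Triton X-100 (100% lysis) control; PBS with 10% water gave 0%.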

Values after ≈ are worked out from the molar mass of the structure shown. Where a SMILES comes first, the peptide text is derived from it. Bridges are numbered along the chain shown (N, C = ends). Roman numbers before positions name the chains, in order. [ ]: non-standard residue; d: D form. Tle = CC(C)(C)[C@H](N)C(=O)O; Hiv = CC(C)[C@H](O)C(=O)O; dDab = NCC[C@@H](N)C(=O)O; Orn = NCCC[C@H](N)C(=O)O; Dab = NCC[C@H](N)C(=O)O; Dap = NC[C@H](N)C(=O)O Bounds are passed on as bounds.

As a reminder, the MIC is the least concentration at which growth counts as inhibited. A high value points to weaker potency. As for `CC(C)C[C@@H]1NC(=O)[C@H](CCN)NC(=O)[C@H](CCN)NC(=O)[C@H](CC(C)C)NC(=O)[C@@H](CC(C)C)NC(=O)[C@H](CCN)NC(=O)[C@@H](NC(=O)[C@@H](CCN)NC(=O)CC[C@H]2NC(=O)[C@H](CCCN)NC(=O)[C@H](CCN)NC(=O)[C@H](Cc3ccc(O)cc3)NC(=O)[C@@H](NC(=O)[C@@H](O)C(C)C)CSSC[C@@H](C(=O)N[C@H](C(N)=O)[C@@H](C)O)NC(=O)[C@H](C(C)(C)C)NC(=O)[C@H](CO)NC(=O)[C@H](Cc3c[nH]c4ccccc34)NC(=O)[C@H]([C@@H](C)O)NC2=O)CCNC1=O` [Ex. 165] (I: H-[Hiv]CY[Dab][Orn][dE]TWS[Tle]CT-NH2 / II: [dDab][Dab][Dab][dL]L[Dab][Dab]L; disulfide I:2-I:11; amide I:6-II:N; lactam II:2-II:C), the MIC was determined as 1 µg/mL (≈ 0.447 µM) in series [1]; 1 µg/mL (≈ 0.447 µM) in [2]; 4 µg/mL (≈ 1.79 µM) in series [3]; 0.125 µg/mL (≈ 0.0558 µM) against Escherichia coli 926415; 0.25 µg/mL (≈ 0.112 µM) in series [4]; 0.5 µg/mL (≈ 0.223 µM) in [5]. The values for the MIC in series [6] and in series [7] were 0.25 µg/mL (≈ 0.112 µM) and 0.5 µg/mL (≈ 0.223 µM), respectively. Besides, the “Hemolysis at 200 μg/mL” value in [8] was under 1%.

As to `CC(C)C[C@@H]1NC(=O)[C@@H](CC(C)C)NC(=O)[C@H](CCN)NC(=O)[C@@H](NC(=O)[C@H](CN)NC(=O)[C@@H](NC(=O)[C@H](CCN)NC(=O)CC[C@@H]2NC(=O)[C@@H](CCN)NC(=O)CNC(=O)[C@H](CCN)NC(=O)[C@H](Cc3ccc(O)cc3)NC(=O)[C@@H](NC(=O)[C@@H](O)C(C)C)CSSC[C@@H](C(=O)N[C@H](C(N)=O)[C@@H](C)O)NC(=O)[C@H](C(C)(C)C)NC(=O)[C@H](CO)NC(=O)[C@H](Cc3c[nH]c4ccccc34)NC2=O)[C@@H](C)O)CCNC(=O)[C@H]([C@@H](C)O)NC(=O)[C@H](CCN)NC(=O)[C@H](CCN)NC1=O` [Ex. 168] (I: H-[Hiv]CY[Dab]G[dDab]EWS[Tle]CT-NH2 / II: [Dab]T[Dap][Dab][Dab][dL]L[Dab][Dab]T; disulfide I:2-I:11; amide I:7-II:N; lactam II:4-II:C), the MIC in series [1] was 0.125 µg/mL (≈ 0.0531 µM); in [2] it was 0.125 µg/mL (≈ 0.0531 µM); in series [3], 0.25 µg/mL (≈ 0.106 µM); with Escherichia coli 926415, 0.125 µg/mL (≈ 0.0531 µM); in series [4], 0.0625 µg/mL (≈ 0.0265 µM); in series [5] it was 0.5 µg/mL (≈ 0.212 µM). The MIC in series [6] was 0.125 µg/mL (≈ 0.0531 µM); in [7], 0.25 µg/mL (≈ 0.106 µM). Also, in series [8], the “Hemolysis at 200 μg/mL” value is recorded as under 1%.

On to `CC(C)C[C@@H]1NC(=O)[C@@H](CC(C)C)NC(=O)[C@H](CCN)NC(=O)[C@@H](NC(=O)[C@H](CN)NC(=O)[C@@H](NC(=O)[C@H](CCN)NC(=O)CC[C@H]2NC(=O)[C@@H](CCN)NC(=O)CNC(=O)[C@H](CCN)NC(=O)[C@H](Cc3ccc(O)cc3)NC(=O)[C@@H](NC(=O)[C@@H](O)C(C)C)CSSC[C@@H](C(=O)N[C@H](C(N)=O)[C@@H](C)O)NC(=O)[C@H](C(C)(C)C)NC(=O)[C@H](CO)NC(=O)[C@H](Cc3c[nH]c4ccccc34)NC2=O)[C@@H](C)O)CCNC(=O)[C@H]([C@@H](C)O)NC(=O)[C@H](CCN)NC(=O)[C@H](CCN)NC1=O` [Ex. 171] (I: H-[Hiv]CY[Dab]G[dDab][dE]WS[Tle]CT-NH2 / II: [Dab]T[Dap][Dab][Dab][dL]L[Dab][Dab]T; disulfide I:2-I:11; amide I:7-II:N; lactam II:4-II:C), for which the MIC stood at 0.0625 µg/mL (≈ 0.0265 µM) in series [1]; 0.0625 µg/mL (≈ 0.0265 µM) in series [2]; 0.5 µg/mL (≈ 0.212 µM) in series [3]; 0.125 µg/mL (≈ 0.0531 µM) against Escherichia coli 926415; 0.125 µg/mL (≈ 0.0531 µM) in series [4]; 0.5 µg/mL (≈ 0.212 µM) in series [5]. Further, the MIC turned out to be 0.125 µg/mL (≈ 0.0531 µM) in series [6] and 0.25 µg/mL (≈ 0.106 µM) in series [7]. Further, in series [8], the “Hemolysis at 200 μg/mL” value is under 1%.

The values are drawn from patent US11629171B2, “Beta-hairpin peptidomimetics” (POLYPHOR AG, priority 2017, dated 2023).
